Measurements as given in PubChem BioAssay (NCI).
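Cells were grown in 96-well plates and exposed to each compound for 48 hours at five concentrations; endpoints were interpolated linearly between bracketing concentrations, or set to the highest concentration if not reached. TGI is the concentration that stops growth completely.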

What was measured:
Test in all cases: NCI tumour cell line growth inhibition, 48 h
OVCAR-4 ovarian = system: OVCAR-4 ovarian
NCI-H460 lung = system: NCI-H460 lung
PC-3 prostate = system: PC-3 prostate
MDA-MB-435 = system: MDA-MB-435
TK-10 renal = system: TK-10 renal
IGROV1 ovarian = system: IGROV1 ovarian
RPMI-8226 leukemia = system: RPMI-8226 leukemia
A498 renal = system: A498 renal
M14 melanoma = system: M14 melanoma
BT-549 breast = system: BT-549 breast
RXF 393 renal = system: RXF 393 renal
786-0 renal = system: 786-0 renal
NCI-H23 lung = system: NCI-H23 lung
SK-OV-3 ovarian = system: SK-OV-3 ovarian
DU-145 prostate = system: DU-145 prostate
SF-295 CNS = system: SF-295 CNS
NCI-H226 lung = system: NCI-H226 lung
HL-60(TB) leukemia = system: HL-60(TB) leukemia
MDA-N = system: MDA-N
T-47D breast = system: T-47D breast
CAKI-1 renal = system: CAKI-1 renal
MOLT-4 leukemia = system: MOLT-4 leukemia
HCT-15 colon = system: HCT-15 colon
UO-31 renal = system: UO-31 renal
NCI/ADR-RES ovarian = system: NCI/ADR-RES ovarian
MDA-MB-231 breast = system: MDA-MB-231 breast
K-562 leukemia = system: K-562 leukemia
EKVX NSCLC = system: EKVX NSCLC
COLO 205 colon = system: COLO 205 colon
HCT-116 colon = system: HCT-116 colon
MALME-3M melanoma = system: MALME-3M melanoma
OVCAR-5 ovarian = system: OVCAR-5 ovarian
OVCAR-8 ovarian = system: OVCAR-8 ovarian
U251 CNS = system: U251 CNS
SF-268 CNS = system: SF-268 CNS
SNB-75 CNS = system: SNB-75 CNS
HOP-92 NSCLC = system: HOP-92 NSCLC
CCRF-CEM leukemia = system: CCRF-CEM leukemia
HOP-62 NSCLC = system: HOP-62 NSCLC
SK-MEL-2 melanoma = system: SK-MEL-2 melanoma
SK-MEL-5 melanoma = system: SK-MEL-5 melanoma
KM12 colon = system: KM12 colon
SN12C renal = system: SN12C renal
MCF7 breast = system: MCF7 breast
HS 578T breast = system: HS 578T breast
HCC-2998 colon = system: HCC-2998 colon
SF-539 CNS = system: SF-539 CNS
SW-620 colon = system: SW-620 colon
SK-MEL-28 melanoma = system: SK-MEL-28 melanoma
ACHN renal = system: ACHN renal
UACC-257 melanoma = system: UACC-257 melanoma
NCI-H522 lung = system: NCI-H522 lung
SR leukemia = system: SR leukemia
LOX IMVI melanoma = system: LOX IMVI melanoma
A549 NSCLC = system: A549 NSCLC
OVCAR-3 ovarian = system: OVCAR-3 ovarian
SNB-19 CNS = system: SNB-19 CNS
HT29 colon = system: HT29 colon
UACC-62 melanoma = system: UACC-62 melanoma
XF 498 CNS = system: XF 498 CNS
DMS 273 small cell lung = system: DMS 273 small cell lung
SNB-78 CNS = system: SNB-78 CNS
DMS 114 small cell lung = system: DMS 114 small cell lung
DLD-1 colon = system: DLD-1 colon
KM20L2 colon = system: KM20L2 colon
M19-MEL melanoma = system: M19-MEL melanoma
LXFL 529 NSCLC = system: LXFL 529 NSCLC

For O=P12N(CCN1c1ccccc1)CCN2c1ccccc1, the TGI (OVCAR-4 ovarian) was > 100 µM, the TGI (NCI-H460 lung) was > 100 µM and the TGI (PC-3 prostate) was > 100 µM. For the same compound, the TGI (MDA-MB-435) was > 100 µM, the TGI (TK-10 renal) was > 100 µM and the TGI (IGROV1 ovarian) was > 100 µM. For the same compound, the TGI (RPMI-8226 leukemia) was > 100 µM, the TGI (A498 renal) was > 100 µM and the TGI (M14 melanoma) was > 100 µM. The TGI (BT-549 breast) was > 100 µM, the TGI (RXF 393 renal) was > 100 µM and the TGI (786-0 renal) was > 100 µM. For the same compound, the TGI (NCI-H23 lung) was > 100 µM, the TGI (SK-OV-3 ovarian) was > 100 µM and the TGI (DU-145 prostate) was > 100 µM. For the same compound, the TGI (SF-295 CNS) was > 100 µM, the TGI (NCI-H226 lung) was > 100 µM and the TGI (HL-60(TB) leukemia) was > 100 µM. For the same compound, the TGI (MDA-N) was > 100 µM, the TGI (T-47D breast) was > 100 µM and the TGI (CAKI-1 renal) was > 100 µM. The TGI (MOLT-4 leukemia) was > 100 µM, the TGI (HCT-15 colon) was > 100 µM and the TGI (UO-31 renal) was > 100 µM. For the same compound, the TGI (NCI/ADR-RES ovarian) was > 100 µM, the TGI (MDA-MB-231 breast) was > 100 µM and the TGI (K-562 leukemia) was > 100 µM. The TGI (EKVX NSCLC) was > 100 µM, the TGI (COLO 205 colon) was > 100 µM and the TGI (HCT-116 colon) was > 100 µM. For the same compound, the TGI (MALME-3M melanoma) was > 100 µM, the TGI (OVCAR-5 ovarian) was > 100 µM and the TGI (OVCAR-8 ovarian) was > 100 µM. The TGI (U251 CNS) was > 100 µM, the TGI (SF-268 CNS) was > 100 µM and the TGI (SNB-75 CNS) was > 100 µM. For the same compound, the TGI (HOP-92 NSCLC) was > 100 µM, the TGI (CCRF-CEM leukemia) was > 100 µM and the TGI (HOP-62 NSCLC) was > 100 µM. For the same compound, the TGI (SK-MEL-2 melanoma) was > 100 µM, the TGI (SK-MEL-5 melanoma) was > 100 µM and the TGI (KM12 colon) was > 100 µM. The TGI (SN12C renal) was > 100 µM, the TGI (MCF7 breast) was > 100 µM and the TGI (HS 578T breast) was > 100 µM. The TGI (HCC-2998 colon) was > 100 µM, the TGI (SF-539 CNS) was > 100 µM and the TGI (SW-620 colon) was > 100 µM. The TGI (SK-MEL-28 melanoma) was > 100 µM, the TGI (ACHN renal) was > 100 µM and the TGI (UACC-257 melanoma) was > 100 µM. For the same compound, the TGI (NCI-H522 lung) was > 100 µM, the TGI (SR leukemia) was > 100 µM and the TGI (LOX IMVI melanoma) was > 100 µM. For the same compound, the TGI (A549 NSCLC) was > 100 µM, the TGI (OVCAR-3 ovarian) was > 100 µM and the TGI (SNB-19 CNS) was > 100 µM. For the same compound, the TGI (HT29 colon) was > 100 µM and the TGI (UACC-62 melanoma) was > 100 µM.

For CCCCCN(CCCCC)C(=O)[C@@H](CCC(=O)O)NC(=O)c1cc2ccccc2[nH]1, the TGI (OVCAR-4 ovarian) was > 100 µM, the TGI (NCI-H460 lung) was > 100 µM and the TGI (XF 498 CNS) was 71.3 µM. For the same compound, the TGI (TK-10 renal) was > 100 µM, the TGI (IGROV1 ovarian) was > 100 µM and the TGI (RPMI-8226 leukemia) was 35.4 µM. For the same compound, the TGI (A498 renal) was > 100 µM, the TGI (DMS 273 small cell lung) was > 100 µM and the TGI (M14 melanoma) was 53.4 µM. For the same compound, the TGI (RXF 393 renal) was 25.6 µM, the TGI (786-0 renal) was > 100 µM and the TGI (NCI-H23 lung) was 58 µM. The TGI (SK-OV-3 ovarian) was > 100 µM, the TGI (SF-295 CNS) was > 100 µM and the TGI (NCI-H226 lung) was > 100 µM. It also gave a TGI (HL-60(TB) leukemia) of 41.2 µM, a TGI (CAKI-1 renal) of 67.6 µM and a TGI (MOLT-4 leukemia) of 46.6 µM. For the same compound, the TGI (HCT-15 colon) was > 100 µM, the TGI (UO-31 renal) was 79.9 µM and the TGI (K-562 leukemia) was > 100 µM. For the same compound, the TGI (EKVX NSCLC) was > 100 µM, the TGI (COLO 205 colon) was 94.9 µM and the TGI (HCT-116 colon) was 34.2 µM. For the same compound, the TGI (MALME-3M melanoma) was > 100 µM, the TGI (OVCAR-5 ovarian) was > 100 µM and the TGI (OVCAR-8 ovarian) was > 100 µM. For the same compound, the TGI (U251 CNS) was 78.1 µM, the TGI (SNB-78 CNS) was > 100 µM and the TGI (SF-268 CNS) was 82.9 µM. For the same compound, the TGI (SNB-75 CNS) was 61.8 µM, the TGI (DMS 114 small cell lung) was > 100 µM and the TGI (DLD-1 colon) was > 100 µM. It also gave a TGI (HOP-92 NSCLC) of 67.8 µM, a TGI (CCRF-CEM leukemia) of 61 µM and a TGI (HOP-62 NSCLC) of 87.7 µM. For the same compound, the TGI (SK-MEL-2 melanoma) was 62.2 µM, the TGI (KM12 colon) was > 100 µM and the TGI (SN12C renal) was > 100 µM. The TGI (HCC-2998 colon) was > 100 µM, the TGI (SF-539 CNS) was 49.4 µM and the TGI (KM20L2 colon) was > 100 µM. For the same compound, the TGI (M19-MEL melanoma) was 40.9 µM, the TGI (SW-620 colon) was > 100 µM and the TGI (SK-MEL-28 melanoma) was 57.5 µM. The TGI (ACHN renal) was > 100 µM, the TGI (LXFL 529 NSCLC) was > 100 µM and the TGI (UACC-257 melanoma) was > 100 µM. For the same compound, the TGI (NCI-H522 lung) was 39.7 µM, the TGI (LOX IMVI melanoma) was > 100 µM and the TGI (A549 NSCLC) was > 100 µM. The TGI (OVCAR-3 ovarian) was > 100 µM, the TGI (SNB-19 CNS) was > 100 µM and the TGI (HT29 colon) was > 100 µM. For the same compound, the TGI (UACC-62 melanoma) was 47.5 µM.

With O=C1C2Nc3ccccc3SC2C(=O)N1c1ccc(Br)cc1 (stereo not given) the TGI (OVCAR-4 ovarian) was 74.2 µM, the TGI (NCI-H460 lung) was > 100 µM and the TGI (XF 498 CNS) was > 100 µM. For the same compound, the TGI (TK-10 renal) was > 100 µM, the TGI (IGROV1 ovarian) was > 100 µM and the TGI (RPMI-8226 leukemia) was > 100 µM. The TGI (A498 renal) was 82.5 µM, the TGI (DMS 273 small cell lung) was > 100 µM and the TGI (M14 melanoma) was > 100 µM. For the same compound, the TGI (RXF 393 renal) was 61.8 µM, the TGI (786-0 renal) was 46.6 µM and the TGI (NCI-H23 lung) was > 100 µM. For the same compound, the TGI (SK-OV-3 ovarian) was 61.1 µM, the TGI (SF-295 CNS) was > 100 µM and the TGI (NCI-H226 lung) was 92.4 µM. The TGI (MOLT-4 leukemia) was > 100 µM, the TGI (HCT-15 colon) was > 100 µM and the TGI (UO-31 renal) was 68.2 µM. For the same compound, the TGI (K-562 leukemia) was > 100 µM, the TGI (EKVX NSCLC) was > 100 µM and the TGI (COLO 205 colon) was > 100 µM. The TGI (MALME-3M melanoma) was > 100 µM, the TGI (OVCAR-5 ovarian) was > 100 µM and the TGI (OVCAR-8 ovarian) was > 100 µM. The TGI (SNB-78 CNS) was 99.1 µM, the TGI (SF-268 CNS) was > 100 µM and the TGI (SNB-75 CNS) was 60.7 µM. For the same compound, the TGI (DMS 114 small cell lung) was 46.4 µM, the TGI (DLD-1 colon) was > 100 µM and the TGI (HOP-92 NSCLC) was 33.2 µM. For the same compound, the TGI (HOP-62 NSCLC) was 55.1 µM, the TGI (SK-MEL-2 melanoma) was > 100 µM and the TGI (SK-MEL-5 melanoma) was 55.3 µM. For the same compound, the TGI (KM12 colon) was > 100 µM, the TGI (SN12C renal) was > 100 µM and the TGI (HCC-2998 colon) was > 100 µM. The TGI (SF-539 CNS) was > 100 µM, the TGI (KM20L2 colon) was > 100 µM and the TGI (M19-MEL melanoma) was > 100 µM. The TGI (SW-620 colon) was > 100 µM, the TGI (SK-MEL-28 melanoma) was > 100 µM and the TGI (ACHN renal) was > 100 µM. For the same compound, the TGI (LXFL 529 NSCLC) was 82.1 µM, the TGI (UACC-257 melanoma) was > 100 µM and the TGI (NCI-H522 lung) was 89.8 µM. For the same compound, the TGI (LOX IMVI melanoma) was > 100 µM, the TGI (A549 NSCLC) was > 100 µM and the TGI (OVCAR-3 ovarian) was 99.5 µM. The TGI (SNB-19 CNS) was > 100 µM, the TGI (HT29 colon) was > 100 µM and the TGI (UACC-62 melanoma) was > 100 µM.
